Test results from patent US20080114005A1, “Fibrate Compounds Having Ppar Agonist Activity” (Dr. Reddy's Laboratories Limited, priority 2004, published 2008).

Columns and labels:
[1] = biological target: T1, human PPARα (Homo sapiens, UniProt Q07869); test: in vitro PPARα transactivation, GAL4-LBD luciferase reporter in HEK-293 cells; type: cell-based; settings: luciferase fold activation relative to untreated cells
T1 construct: expressed in transfected cells; host or cells: HEK-293
T1 sequence (Q07869 239-466 limits assumed): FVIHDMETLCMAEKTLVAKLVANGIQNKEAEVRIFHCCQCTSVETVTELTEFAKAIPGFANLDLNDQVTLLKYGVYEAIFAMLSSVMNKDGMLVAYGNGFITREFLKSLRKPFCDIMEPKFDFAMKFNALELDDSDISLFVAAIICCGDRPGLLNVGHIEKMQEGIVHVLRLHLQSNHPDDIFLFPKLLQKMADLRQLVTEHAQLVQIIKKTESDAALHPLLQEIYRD
Source text: A number of derivatives of the invention have shown PPAR agonist activity. The following procedure was used for in vitro determination of PPARα, γ and δ transactivation.
(§1) The ligand binding domain of human PPARγ1, PPARα or PPARδ was fused to the C-terminal end of DNA binding domain of yeast transcription factor GAL4 in eukaryotic expression vector. HEK-293 cells were transfected with either of these plasmids, reporter plasmid pGL2 (Gal4×5)˜SV40˜Luc and pAdVantage using superfect (Qiagen, Germany) for 3 hours. pAdVantage vector was used to enhance the luciferase expression. 48 hours after transfection, the cells were harvested and incubated overnight with or without test compounds at different concentrations. The cells were lysed and luciferase activity was measured using the LucLite kit (Packard USA). Luciferase activity was measured as fold activation relative to untreated cells.

[2] = system: Swiss albino mice; test: plasma triglyceride lowering activity in Swiss albino mice; type: in vivo; settings: 3.0 mg/kg orally for 6 days
Method: The properties of the derivatives of the invention were also evaluated in vivo. The following procedure was used to determine plasma triglyceride and total cholesterol lowering activity in Swiss albino mice.
Male Swiss albino mice (SAM) were obtained from National Institute Nutrition (NIN) and housed in Dr. Reddy's Laboratories Ltd (DRL) animal house. All these animals are maintained under 12 hour light and dark cycle at 25±1° C. Animals were given standard laboratory chow (NIN, Hyderabad, India) and water, ad libitum. SAM of 20-25 grams body weight range were used. See Oliver, P., Plancke, M. O., Marzin, D., Clavey, V., Sauzieres, J and Fruchart, J. C. Effects of fenofibrate, gemfibrozil and nicotinic acid on plasma lipoprotein levels in normal and hyperlipidemic mice, Atherosclerosis. 1988. 70: 107-114, incorporated herein by reference in its entirety. The test compounds can be administered orally to Swiss albino mice at the dose mentioned in table for 6 days. Control mice were treated with vehicle 0.25% Carboxymethylcellulose (CMC; dose 10 ml/kg). The blood samples from the retro-orbital sinus through heparinised capillary in EDTA containing tubes were collected in fed state 1 hour after drug administration on 0 and 6 days of treatment. After centrifugation plasma was separated for triglyceride measurement using commercial kits. See Wieland, O. Methods of Enzymatic analysis. Bergermeyer, H. O., Ed., 1963. 211-214; Trinder, P. Ann. Clin. Biochem. 1969. 6: 24-27, incorporated herein by reference in its entirety. Percent reduction was calculated as per the formula given in Petit, D., Bonnefis, M. T., Rey, C. and Infante, R. Effects of ciprofibrate on liver lipids and lipoprotein synthesis in normo- and hyperlipidemic rats. Atherosclerosis. 1988. 74 : 215-225.

[3] = system: hypercholesterolemic rat model; test: plasma triglyceride and cholesterol lowering activity in hypercholesterolemic rat model; type: in vivo, Sprague Dawley rats; settings: hypercholesterolemic rats, 3.0 mg/kg orally for 3 days
Method: The following procedure was used to determine plasma triglyceride and cholesterol lowering activity in hypercholesterolemic rat model.
Male Sprague Dawley rats (NIN stock) were bred in DRL animal house. Animals were maintained under 12 hour light and dark cycle at 25±1° C. Rats of 180-200 gram body weight range were used for the experiment. Animals are made hypercholesterolemic by feeding 2% cholesterol and 1% sodium cholate mixed with standard laboratory chow [National Institute of Nutrition (NIN), Hyderabad, India] for 6 days. Throughout the experimental period the animals were maintained on the same diet. The test compounds were administered orally at a dose mentioned in table for 3 days. Control group was treated with vehicle alone (0.25% CMC; 10 ml/kg). The blood samples were collected in fed state 1 hour after drug administration on 0 and 3 days of compound treatment. The blood was collected from the retro-orbital sinus through heparinised capillary in EDTA containing tubes. After centrifugation, plasma sample was separated for total cholesterol, HDL and triglyceride estimations. Measurement of plasma triglyceride, total cholesterol and HDL were done using commercial kits. LDL and VLDL cholesterol can be calculated from the data obtained for total cholesterol, HDL and triglyceride.
The percent reductions in blood sugar/triglycerides/total cholesterol were calculated according to the following formula:
OC=Zero day control group value
OT=Zero day treated group value
TC=Test day control group value
T=Test day treated group value.
The levels of LDL and VLDL cholesterol were calculated according to the formula:
VLDL cholesterol in mg/dl=[Total cholesterol-HDL cholesterol-LDL cholesterol] mg/dl.

[4] = biological target: T2, human PPARδ (Homo sapiens, UniProt Q03181); test: in vitro PPARδ transactivation, GAL4-LBD luciferase reporter in HEK-293 cells; type: cell-based; settings: luciferase fold activation relative to untreated cells
T2 construct: expressed in transfected cells; host or cells: HEK-293
T2 sequence (Q03181 211-439 limits assumed): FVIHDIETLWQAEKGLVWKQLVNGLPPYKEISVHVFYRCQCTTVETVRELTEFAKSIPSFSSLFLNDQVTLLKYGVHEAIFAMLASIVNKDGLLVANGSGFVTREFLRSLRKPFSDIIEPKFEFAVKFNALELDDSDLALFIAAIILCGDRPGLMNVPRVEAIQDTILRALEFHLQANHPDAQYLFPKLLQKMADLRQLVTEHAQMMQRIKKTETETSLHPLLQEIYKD
Method: (§2) The following procedure was used for in vitro determination of PPARα, γ and δ transactivation.
as §1

[5] = biological target: T3, human PPARγ1 (Homo sapiens, UniProt P37231); test: in vitro PPARγ transactivation, GAL4-LBD luciferase reporter in HEK-293 cells; type: cell-based; settings: luciferase fold activation relative to untreated cells
T3 construct: expressed in transfected cells; host or cells: HEK-293
T3 sequence (P37231 238-503 limits assumed): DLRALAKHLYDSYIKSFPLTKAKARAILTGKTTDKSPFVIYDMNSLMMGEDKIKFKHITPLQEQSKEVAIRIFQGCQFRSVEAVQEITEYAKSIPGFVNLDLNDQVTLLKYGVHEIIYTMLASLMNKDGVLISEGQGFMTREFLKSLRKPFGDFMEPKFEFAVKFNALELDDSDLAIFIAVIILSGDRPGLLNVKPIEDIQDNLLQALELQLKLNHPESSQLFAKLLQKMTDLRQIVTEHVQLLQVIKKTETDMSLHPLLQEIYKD
Method: as §2, §1

melting point: 130 to 132 °C
PPARα activation ([1]; test compound at 1 μM): 5.0
PPARα activation ([1]; test compound at 10 μM): 5.7
PPARδ activation ([4]; test compound at 1 μM): 0.6
PPARδ activation ([4]; test compound at 10 μM): 3.3
PPARγ activation ([5]; test compound at 1 μM): 1.1(87.3)
PPARγ activation ([5]; test compound at 10 μM): 0.3(85.3)
Compound: CCCc1nn(C)c2c(=O)n(CCOc3cccc(OC(C)(CC)C(=O)O)c3)c(C)nc12 (stereo not drawn) [Example 98, 2-{3-[2-(1,5-Dimethyl-7-oxo-3-propyl-1,7-dihydro-pyrazolo[4,3-d]pyrimidin-6-yl)-ethoxy]-phenoxy}-2-methyl-butyric acid]
% reduction in TG [2]: 65%
Reduction (%) LDL ([3]; LDL cholesterol calculated by formula): 75%
↑HDL ([3]; increase of plasma HDL (under head Reduction (%))): 267%
Reduction (%) TC ([3]; plasma total cholesterol): 67%
Reduction (%) TG ([3]; plasma triglyceride): 81%
